Data as given in patent publication US20050239656A1, “Pyridine compounds or salts thereof and herbicides containing the same” (priority 2002, published 2005).

Tests used:
soybean [1] = experiment: Test Example 1: foliage treatment, upland pot test; assay type: in vivo, Glycine max Merr.; conditions: crop, active ingredient 500 g/ha, observed 18th to 23rd day, 0 = non-treated, 100 = complete kill
In short: (§1)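 Visual growth-control scores (0 = untreated, 100 = complete kill) were taken 18–23 days after foliar spraying of a wettable powder or emulsifiable concentrate, diluted in 500 L/ha water with 0.1% (v/v) spreader. Treatment leaf stages: barnyardgrass 1.3–2.8, rice 1.2–2.6, wheat 1.3–2.4, soybean 0.1–0.4.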

japanese bulrush = experiment: Test Example 3: paddy pot test, application under submerged conditions; assay type: in vivo, Scirpus juncoides; conditions: active ingredient 500 g/ha; submerged application at 0.5 leaf stage; visually observed 14 days after application; 0 = non-treated, 100 = complete kill
In short: (§2)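 Visual rating of growth control (0% equals untreated, 100% complete kill) made 14 days after treatment. Compound, formulated as wettable powder or emulsifiable concentrate and diluted in water, was pipetted under submerged conditions at predetermined active-ingredient doses once weeds reached 0.5-leaf (barnyardgrass, bulrush) or primary-leaf (wapato, from tubers) stage. Pots of greenhouse paddy soil held 3–4 cm flooding.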

barnyardgrass [2] = experiment: Test Example 2: soil surface treatment, upland pot test; assay type: in vivo, Echinochloa crus-galli L.; conditions: active ingredient 500 g/ha, observed 20th to 28th day
In short: (§3)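 A pre-emergence soil application: formulated compound at a predetermined active-ingredient dose, diluted in water to 1,500 L/ha, sprayed on upland soil a day after seeding in 1/170,000 ha pots; growth control rated visually, 0 (untreated level) to 100 (kill), at 20–28 days.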

redroot pigweed [3] = experiment: Test Example 1: foliage treatment, upland pot test; assay type: in vivo, Amaranthus retroflexus L.; conditions: active ingredient 500 g/ha, observed 18th to 23rd day, 0 = non-treated, 100 = complete kill
velvetleaf [4] = experiment: Test Example 2: soil surface treatment, upland pot test; assay type: in vivo, Abutilon theophrasti MEDIC.; conditions: active ingredient 500 g/ha, observed 20th to 28th day
In short: as §3

corn [5] = experiment: as above; assay type: in vivo, Zea mays L.; conditions: active ingredient 500 g/ha, observed 20th to 28th day
In short: as §3

green foxtail [6] = experiment: as above; assay type: in vivo, Setaria viridis L.; conditions: active ingredient 500 g/ha, observed 20th to 28th day
In short: as §3

crabgrass [7] = experiment: Test Example 1: foliage treatment, upland pot test; assay type: in vivo, Digitaria sanguinalis L.; conditions: active ingredient 500 g/ha, observed 18th to 23rd day, 0 = non-treated, 100 = complete kill
barnyardgrass [8] = experiment: Test Example 3: paddy pot test, application under submerged conditions; assay type: in vivo, Echinochloa crus-galli L.; conditions: active ingredient 500 g/ha; submerged application at 0.5 leaf stage; visually observed 14 days after application; 0 = non-treated, 100 = complete kill
In short: as §2

crabgrass [9] = experiment: Test Example 2: soil surface treatment, upland pot test; assay type: in vivo, Digitaria sanguinalis L.; conditions: active ingredient 500 g/ha, observed 20th to 28th day
In short: as §3

rice (var. Nihonbare) = experiment: Test Example 3: paddy pot test, transplanted rice; assay type: in vivo, Oryza sativa L.; conditions: active ingredient 500 g/ha, applied 4th day after transplantation, visually observed 21st day after application, 0 = non-treated, 100 = complete kill
In short: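 Visual crop-injury rating (0 = as untreated, 100 = complete kill, %) taken 21 days post-application. Treatment: formulated compound, water-diluted, pipetted into 3–4 cm flood water at a preset active-ingredient dose, 4 days after transplanting 2-leaf Nihonbare rice 3 cm deep in puddled paddy soil.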

prickly sida [10] = experiment: Test Example 2: soil surface treatment, upland pot test; assay type: in vivo, Sida spinosa L.; conditions: active ingredient 500 g/ha, observed 20th to 28th day
In short: as §3

soybean [11] = experiment: as above; assay type: in vivo, Glycine max Merr.; conditions: active ingredient 500 g/ha, observed 20th to 28th day
In short: as §3

barnyardgrass [12] = experiment: Test Example 1: foliage treatment, upland pot test; assay type: in vivo, Echinochloa crus-galli L.; conditions: active ingredient 500 g/ha, observed 18th to 23rd day, 0 = non-treated, 100 = complete kill
In short: as §1

velvetleaf [13] = experiment: Test Example 1: foliage treatment, upland pot test; assay type: in vivo, Abutilon theophrasti MEDIC.; conditions: active ingredient 500 g/ha, observed 18th to 23rd day, 0 = non-treated, 100 = complete kill
rice [14] = experiment: Test Example 2: soil surface treatment, upland pot test; assay type: in vivo, Oryza sativa L.; conditions: active ingredient 500 g/ha, observed 20th to 28th day
In short: as §3

wheat = experiment: Test Example 1: foliage treatment, upland pot test; assay type: in vivo, Triticum spp.; conditions: crop, active ingredient 500 g/ha, observed 18th to 23rd day, 0 = non-treated, 100 = complete kill
From the text: Upland field soil was put into a 1/170,000 ha pot, and seed of various plants were sown. Then, when the plants reached predetermined leaf stages ((1) barnyardgrass: 1.3 to 2.8 leaf stages, (2) crabgrass: 1.0 to 2.8 leaf stages, (3) green foxtail: 1.3 to 2.6 leaf stages, (4) redroot pigweed: 0.1 to 1.2 leaf stages, (5) prickly sida: 0.1 to 1.2 leaf stages, (6) velvetleaf: 0.1 to 1.2 leaf stages, (7) tall morningglory: 0.1 to 1.5 leaf stages, (8) rice: 1.2 to 2.6 leaf stages, (9) wheat: 1.3 to 2.4 leaf stages, (10) corn, 2.1 to 3.2 leaf stages, (11) soybean: 0.1 to 0.4 leaf stage), a wettable powder or emulsifiable concentrate having the compound of the present invention formulated in accordance with a usual formulation method, was weighed so that the active ingredient would be a predetermined amount, and diluted with water in an amount of 500 L/ha. To the diluted solution, 0.1% (v/v) of agricultural spreader was added. The herbicide thus adjusted was applied by a small size sprayer for foliage treatment. On the 18th to 23rd days after the application of the herbicide, the growth of the respective plants was visually observed, and the herbicidal effects were evaluated by the growth controlling degrees (%) ranging from 0 (equivalent to the non-treated plot) to 100 (complete kill), whereby the results shown in Table 3, were obtained.

green foxtail [15] = experiment: Test Example 1: foliage treatment, upland pot test; assay type: in vivo, Setaria viridis L.; conditions: active ingredient 500 g/ha, observed 18th to 23rd day, 0 = non-treated, 100 = complete kill
corn [16] = experiment: Test Example 1: foliage treatment, upland pot test; assay type: in vivo, Zea mays L.; conditions: crop, active ingredient 500 g/ha, observed 18th to 23rd day, 0 = non-treated, 100 = complete kill
In short: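 In this upland pot foliage test, corn plants at 2.1 to 3.2 leaf stages were sprayed by a small size sprayer. The spray was a conventionally formulated wettable powder or emulsifiable concentrate weighed to a set active ingredient amount, diluted in water at 500 L/ha, plus 0.1% (v/v) agricultural spreader. Visual assessment on days 18 to 23 gave growth controlling degree (%), where 0 equals untreated and 100 means complete kill.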

prickly sida [17] = experiment: Test Example 1: foliage treatment, upland pot test; assay type: in vivo, Sida spinosa L.; conditions: active ingredient 500 g/ha, observed 18th to 23rd day, 0 = non-treated, 100 = complete kill
redroot pigweed [18] = experiment: Test Example 2: soil surface treatment, upland pot test; assay type: in vivo, Amaranthus retroflexus L.; conditions: active ingredient 500 g/ha, observed 20th to 28th day
In short: as §3

rice [19] = experiment: Test Example 1: foliage treatment, upland pot test; assay type: in vivo, Oryza sativa L.; conditions: crop, active ingredient 500 g/ha, observed 18th to 23rd day, 0 = non-treated, 100 = complete kill
In short: as §1

SMILES: CON=Cc1ccc(CC(=O)N(C)C(c2cnccc2C(F)(F)F)C(C)C)cc1 (racemic) [I-122]
- Growth controlling degree (%) Soybean (soybean [1]): 80%
- Growth controlling degree (%) Japanese bulrush (japanese bulrush): 100%
- Growth controlling degree (%) Barnyardgrass (barnyardgrass [2]): 98%
- Growth controlling degree (%) Redroot pigweed (redroot pigweed [3]): 70%
- Growth controlling degree (%) Velvetleaf (velvetleaf [4]): 30%
- Growth controlling degree (%) Corn (corn [5]): 10%
- Growth controlling degree (%) Green foxtail (green foxtail [6]): 100%
- Growth controlling degree (%) Crabgrass (crabgrass [7]): 95%
- Growth controlling degree (%) Barnyardgrass (barnyardgrass [8]): 98%
- Growth controlling degree (%) Crabgrass (crabgrass [9]): 100%
- Growth controlling degree (%) Rice (rice (var. Nihonbare)): 10%
- Growth controlling degree (%) Prickly sida (prickly sida [10]): 50%
- Growth controlling degree (%) Soyabean (soybean [11]): 10%
- Growth controlling degree (%) Barnyardgrass (barnyardgrass [12]): 80%
- Growth controlling degree (%) Velvetleaf (velvetleaf [13]): 70%
- Growth controlling degree (%) Rice (rice [14]): 20%
- Growth controlling degree (%) wheat (wheat): 0%
- Growth controlling degree (%) Green foxtail (green foxtail [15]): 60%
- Growth controlling degree (%) Corn (corn [16]): 80%
- Growth controlling degree (%) Prickly sida (prickly sida [17]): 80%
- Growth controlling degree (%) Redroot pigweed (redroot pigweed [18]): 60%
- Growth controlling degree (%) Rice (rice [19]): 10%

SMILES: CC(C)C(c1cnccc1C(F)(F)F)N(C)C(=O)C=Cc1ccc(C(F)(F)F)cc1 (centres unmarked) [I-186]
- Growth controlling degree (%) Soybean (soybean [1]): 70%
- Growth controlling degree (%) Japanese bulrush (japanese bulrush): 95%
- Growth controlling degree (%) Barnyardgrass (barnyardgrass [2]): 40%
- Growth controlling degree (%) Redroot pigweed (redroot pigweed [3]): 50%
- Growth controlling degree (%) Velvetleaf (velvetleaf [4]): 0%
- Growth controlling degree (%) Corn (corn [5]): 30%
- Growth controlling degree (%) Green foxtail (green foxtail [6]): 100%
- Growth controlling degree (%) Crabgrass (crabgrass [7]): 60%
- Growth controlling degree (%) Barnyardgrass (barnyardgrass [8]): 98%
- Growth controlling degree (%) Crabgrass (crabgrass [9]): 98%
- Growth controlling degree (%) Rice (rice (var. Nihonbare)): 10%
- Growth controlling degree (%) Prickly sida (prickly sida [10]): 10%
- Growth controlling degree (%) Soyabean (soybean [11]): 0%
- Growth controlling degree (%) Barnyardgrass (barnyardgrass [12]): 50%
- Growth controlling degree (%) Velvetleaf (velvetleaf [13]): 60%
- Growth controlling degree (%) Rice (rice [14]): 20%
- Growth controlling degree (%) wheat (wheat): 60%
- Growth controlling degree (%) Green foxtail (green foxtail [15]): 40%
- Growth controlling degree (%) Corn (corn [16]): 50%
- Growth controlling degree (%) Prickly sida (prickly sida [17]): 60%
- Growth controlling degree (%) Redroot pigweed (redroot pigweed [18]): 40%
- Growth controlling degree (%) Rice (rice [19]): 10%
